# From US20100093776A1, “Organic Compounds and Their Uses” (Novartis AG, priority 2006, published 2010)
# How the values were obtained:
# neointima formation = conditions: rats; cited from earlier work
# CDK1/cyclinB = target: T1, CDK1/cyclinB (Homo sapiens, UniProt P06493); assay: CDK1/cyclinB IMAP fluorescence polarization kinase assay; format: biochemical; conditions: 52 μM ATP, two hours at room temperature
# T1 construct: purchased Millipore
# Procedure: (§1) Kinase assays were performed on recombinant purified enzymes using the non-radioactive IMAP fluorescence polarization assay format.
# (§2) Compound stocks were prepared and diluted in DMSO and were added to kinase reactions at a 1/100 dilution for a final concentration of 1% DMSO. The components were added together to final concentrations listed in the tables below and incubated for two hours at room temperature.
# (§3) The reactions were stopped by addition of stop solution.
# (§4) CDK9/CDK1/CDK7: final stop concentration is 1× Developer buffer (85% A/15% B), IMAP beads 1/400
# (§5) The samples were allowed to incubate for one more hour at room temperature and then the fluorescence polarization was measured. The plate normalized millipolarization (mP) values were plotted against the log of compound concentration for each compound and IC50 values were calculated using the spotfire IC50 calculator and confirmed by visual analysis.
# CDK4 = CDK4 (Homo sapiens, UniProt P11802); assay: CDK4 kinase assay (IMAP fluorescence polarization); format: biochemical
# Procedure: as §1, §2, §5
# CDK5 = CDK5 (Homo sapiens, UniProt Q00535); assay: CDK5 kinase assay (IMAP fluorescence polarization); format: biochemical
# Procedure: as §1, §2, §5
# CDK7/cyclinH/MAT1 = target: T2, CDK7/cyclinH/MAT1 (Homo sapiens, UniProt P50613); assay: CDK7/cyclinH/Mat1 IMAP fluorescence polarization kinase assay; format: biochemical; conditions: 8.09 μM ATP, two hours at room temperature
# T2 construct: purchased Millipore
# Procedure: as §1, §2, §3, §4, §5
# CDK9/cyclinT1 = target: T3, CDK9/cyclinT1 (Homo sapiens, UniProt P50750); assay: CDK9/cyclinT1 IMAP fluorescence polarization kinase assay; format: biochemical; conditions: 6 μM ATP, two hours at room temperature
# T3 construct: purchased Millipore
# Procedure: as §1, §2, §3, §4, §5
# [1] = system: RNA polymerase II CTD serine2 phosphorylation in Hep3B cells; assay: H5 (Ser2) Ab High Content Screen: RNA polymerase II CTD serine2 phosphorylation Assay; format: cell-based; conditions: Homo sapiens, compounds for 2 hours, H5 antibody nuclear staining
# Procedure: H5 (also referred as Ser2) Ab High Content Screen: RNA polymerase II CTD serine2 phosphorylation Assay
# 1. Cells are plated into 384 well plates: 30 μl of Hep3B cells (4,000 cells/30 μl) in DMEM with 3% FBS are plated into wells of a tissue culture treated clear bottomed 384 well plate. Cells are allowed to adhere during an overnight incubation.
# 2. Cells are treated with compounds for two hours: 10 μl of DMEM with 3% FBS is added to each well with a final concentration of DMSO equal to 1%. Cells are incubated with compounds for 2 hours.
# 3. Cells are fixed and permeabilized. Cells are washed with 30 mM HEPES pH=7.3 then fixed in 4% paraformaldehyde in 30 mM HEPES pH=7.3 for one hour at room temperature. The fix is removed by washing the cells with Tris buffered saline (TBS) and the cells are permeabilized by incubation in TBS with 0.5% triton X-100 for 30 minutes at room temperature. Triton is removed by washing the cells with TBS.
# 4. Cells are stained with H5 monoclonal antibody and nuclei are stained with Hoechst dye 33342: Block cells by incubating in TBS with 1% Bovine serum albumin (BSA) for one hour at room temperature. Incubate primary H5 Ab (1/250) overnight at 4 degrees in PBS with 1% BSA and 0.1% Tween-20. The next day wash cells with TBS. Add secondary antibody, anti-IgM labeled with cy5 (1/450), and Hoecsht dye 33342 (10 μg/ml) in TBS with 1% BSA and incubate one hour at room temperature. Wash cells with PBS.
# 5. Measure staining using the In-cell Analyzer system from GE Healthcare. Nuclei were located using the Hoecsht 33342 dye signal and H5 Antibody staining was quantified by measuring cy5 label. Nuclear intensity of H5 staining was plotted against the log of compound concentration for each compound and IC-50 values were calculated using the spotfire IC-50 calculator and confirmed by visual analysis.
# CDK2/cyclinA = target: T4, CDK2/cyclinA (Homo sapiens, UniProt P24941); assay: CDK2/cyclinA IMAP fluorescence polarization kinase assay; format: biochemical; conditions: 4.68 μM ATP, two hours at room temperature
# T4 construct: purchased Millipore
# Procedure: as §1, §2, §3
# CDK2: final stop concentration is 1× Developer buffer (100% A), IMAP beads 1/400
# as §5
# CDK4, sequence (P11802 whole entry, species assumed): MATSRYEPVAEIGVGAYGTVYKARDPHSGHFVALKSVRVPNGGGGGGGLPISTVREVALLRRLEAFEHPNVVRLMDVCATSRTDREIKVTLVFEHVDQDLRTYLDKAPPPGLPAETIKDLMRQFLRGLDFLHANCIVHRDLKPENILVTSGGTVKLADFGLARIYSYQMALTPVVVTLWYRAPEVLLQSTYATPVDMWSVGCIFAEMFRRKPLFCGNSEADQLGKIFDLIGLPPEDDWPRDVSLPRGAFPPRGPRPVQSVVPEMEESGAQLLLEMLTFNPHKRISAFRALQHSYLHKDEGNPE
# CDK4, sequence (P24385 whole entry partner, species assumed): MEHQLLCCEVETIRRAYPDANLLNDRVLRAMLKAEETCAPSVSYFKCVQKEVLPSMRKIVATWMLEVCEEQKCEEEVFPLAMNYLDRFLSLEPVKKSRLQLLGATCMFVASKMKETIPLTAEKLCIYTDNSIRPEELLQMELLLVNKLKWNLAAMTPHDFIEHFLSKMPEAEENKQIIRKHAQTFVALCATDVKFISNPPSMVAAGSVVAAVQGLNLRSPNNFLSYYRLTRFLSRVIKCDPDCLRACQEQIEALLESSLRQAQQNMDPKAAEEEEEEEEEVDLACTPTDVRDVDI
# CDK5, sequence (Q00535 whole entry, species assumed): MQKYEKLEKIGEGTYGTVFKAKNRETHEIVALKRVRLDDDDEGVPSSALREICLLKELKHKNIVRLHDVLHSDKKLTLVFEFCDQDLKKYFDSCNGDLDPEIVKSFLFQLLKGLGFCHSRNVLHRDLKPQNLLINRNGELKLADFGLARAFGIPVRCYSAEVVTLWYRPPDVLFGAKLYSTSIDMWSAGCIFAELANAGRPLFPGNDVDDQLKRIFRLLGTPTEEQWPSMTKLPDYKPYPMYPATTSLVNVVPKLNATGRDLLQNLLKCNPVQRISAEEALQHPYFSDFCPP
# CDK5, sequence (Q15078 whole entry partner, species assumed): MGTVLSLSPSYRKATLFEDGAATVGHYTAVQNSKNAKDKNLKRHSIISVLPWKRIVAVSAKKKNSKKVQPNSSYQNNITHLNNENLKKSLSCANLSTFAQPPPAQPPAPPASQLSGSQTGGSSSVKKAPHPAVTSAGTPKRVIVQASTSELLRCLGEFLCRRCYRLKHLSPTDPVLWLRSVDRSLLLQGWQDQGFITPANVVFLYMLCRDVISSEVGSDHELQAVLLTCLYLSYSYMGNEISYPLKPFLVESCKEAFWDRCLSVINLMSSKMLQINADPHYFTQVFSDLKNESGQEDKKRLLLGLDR
# T1 sequence (P06493 whole entry): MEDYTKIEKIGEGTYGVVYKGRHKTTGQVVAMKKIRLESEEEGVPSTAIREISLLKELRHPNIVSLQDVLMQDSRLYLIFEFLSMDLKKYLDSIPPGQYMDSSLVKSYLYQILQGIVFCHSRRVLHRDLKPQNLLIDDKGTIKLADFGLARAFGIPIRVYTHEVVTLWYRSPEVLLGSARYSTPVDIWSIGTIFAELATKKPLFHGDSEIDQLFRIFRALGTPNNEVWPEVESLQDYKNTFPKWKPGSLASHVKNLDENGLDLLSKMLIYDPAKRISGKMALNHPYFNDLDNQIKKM
# T1 sequence (P14635 whole entry partner): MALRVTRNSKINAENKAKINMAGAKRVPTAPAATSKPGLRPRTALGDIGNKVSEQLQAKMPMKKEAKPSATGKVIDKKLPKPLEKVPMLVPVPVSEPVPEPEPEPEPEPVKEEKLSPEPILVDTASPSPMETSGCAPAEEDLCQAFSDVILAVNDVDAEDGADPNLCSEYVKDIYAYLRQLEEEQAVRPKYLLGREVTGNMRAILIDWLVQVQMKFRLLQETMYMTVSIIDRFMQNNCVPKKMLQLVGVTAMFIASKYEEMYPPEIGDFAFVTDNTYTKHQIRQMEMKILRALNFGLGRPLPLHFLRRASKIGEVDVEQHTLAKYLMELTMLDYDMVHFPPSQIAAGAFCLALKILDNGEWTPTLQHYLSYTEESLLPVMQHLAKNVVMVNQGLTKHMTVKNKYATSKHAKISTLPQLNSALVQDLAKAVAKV
# T3 sequence (P50750 whole entry): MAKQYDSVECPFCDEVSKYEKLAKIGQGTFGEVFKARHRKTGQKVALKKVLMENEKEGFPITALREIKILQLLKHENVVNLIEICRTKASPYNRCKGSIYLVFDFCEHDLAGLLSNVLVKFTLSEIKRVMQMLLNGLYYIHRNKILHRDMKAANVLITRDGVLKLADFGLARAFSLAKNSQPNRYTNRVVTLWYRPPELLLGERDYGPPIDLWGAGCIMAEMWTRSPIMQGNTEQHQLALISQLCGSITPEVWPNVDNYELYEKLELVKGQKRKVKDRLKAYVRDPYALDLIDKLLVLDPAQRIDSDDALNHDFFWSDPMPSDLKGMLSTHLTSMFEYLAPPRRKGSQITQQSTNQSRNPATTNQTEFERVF
# T3 sequence (O60563 whole entry partner): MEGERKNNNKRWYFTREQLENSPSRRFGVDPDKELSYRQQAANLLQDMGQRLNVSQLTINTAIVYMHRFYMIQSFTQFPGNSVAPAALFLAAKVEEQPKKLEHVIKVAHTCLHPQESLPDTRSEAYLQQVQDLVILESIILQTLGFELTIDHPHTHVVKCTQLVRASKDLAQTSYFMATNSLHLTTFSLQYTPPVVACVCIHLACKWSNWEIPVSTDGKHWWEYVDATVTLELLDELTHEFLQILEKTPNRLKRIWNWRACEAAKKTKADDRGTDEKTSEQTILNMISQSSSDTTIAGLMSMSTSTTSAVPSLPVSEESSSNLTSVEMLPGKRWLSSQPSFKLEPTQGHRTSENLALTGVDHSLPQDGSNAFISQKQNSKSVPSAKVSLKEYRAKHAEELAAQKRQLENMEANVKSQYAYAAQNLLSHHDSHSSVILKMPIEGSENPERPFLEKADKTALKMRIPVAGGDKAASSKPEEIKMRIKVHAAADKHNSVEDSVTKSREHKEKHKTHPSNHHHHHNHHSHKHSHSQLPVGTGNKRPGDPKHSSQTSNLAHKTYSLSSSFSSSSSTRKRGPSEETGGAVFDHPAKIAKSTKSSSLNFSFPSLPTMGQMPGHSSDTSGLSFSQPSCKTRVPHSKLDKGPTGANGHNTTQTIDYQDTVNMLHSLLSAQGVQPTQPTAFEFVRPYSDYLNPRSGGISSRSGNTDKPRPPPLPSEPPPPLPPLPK
# T2 sequence (P50613 whole entry): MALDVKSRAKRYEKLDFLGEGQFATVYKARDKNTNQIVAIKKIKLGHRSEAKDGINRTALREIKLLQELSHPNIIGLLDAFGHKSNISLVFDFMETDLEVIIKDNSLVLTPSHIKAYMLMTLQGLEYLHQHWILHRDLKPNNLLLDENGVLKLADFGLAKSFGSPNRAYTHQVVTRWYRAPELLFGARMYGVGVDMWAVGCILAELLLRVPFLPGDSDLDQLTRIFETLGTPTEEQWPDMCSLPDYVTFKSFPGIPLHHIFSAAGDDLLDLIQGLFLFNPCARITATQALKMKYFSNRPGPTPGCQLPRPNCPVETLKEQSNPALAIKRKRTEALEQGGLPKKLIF
# T2 sequence (P51946 whole entry partner): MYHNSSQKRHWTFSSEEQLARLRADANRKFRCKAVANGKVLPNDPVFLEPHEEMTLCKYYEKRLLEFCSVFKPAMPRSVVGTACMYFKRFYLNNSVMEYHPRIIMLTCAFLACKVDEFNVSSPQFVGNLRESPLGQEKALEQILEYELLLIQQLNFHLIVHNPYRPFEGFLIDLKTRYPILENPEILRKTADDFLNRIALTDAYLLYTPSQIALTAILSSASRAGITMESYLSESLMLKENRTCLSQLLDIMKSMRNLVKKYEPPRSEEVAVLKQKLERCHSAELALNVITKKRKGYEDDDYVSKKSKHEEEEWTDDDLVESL
# T2 sequence (P51948 whole entry partner): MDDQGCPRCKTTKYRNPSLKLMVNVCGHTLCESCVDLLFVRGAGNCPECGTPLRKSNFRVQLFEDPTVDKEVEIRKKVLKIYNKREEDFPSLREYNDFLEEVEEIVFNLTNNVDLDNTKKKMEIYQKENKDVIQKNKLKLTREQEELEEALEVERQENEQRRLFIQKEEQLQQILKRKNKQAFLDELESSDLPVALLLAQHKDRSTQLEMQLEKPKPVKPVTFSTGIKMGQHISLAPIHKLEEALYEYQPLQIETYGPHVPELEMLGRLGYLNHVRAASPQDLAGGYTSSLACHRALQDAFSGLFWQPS
SMILES,inhibition of neointima formation (neointima formation),IC50 (CDK1/cyclinB) [µM],IC50 (CDK4) [µM],IC50 (CDK5) [µM],IC50 (CDK7/cyclinH/MAT1) [µM],IC50 (CDK9/cyclinT1) [µM],IC50 [1] [µM],IC50 (CDK2/cyclinA) [µM]
COc1ccc(CNc2nc(N(CCO)CCO)nc3c2ncn3C(C)C)cc1 [CVT-313],greater than 80%,–,–,–,–,–,–,–
"Clc1cccc(Nc2nccc(-c3cccc4[nH]ccc34)n2)c1 [Compound 1, (3-Chloro-phenyl)-[4-(1H-indol-4-yl)-pyrimidin-2-yl]-amine]",–,< 5,5 to 15,< 5,> 50,< 5,< 5,–
"CS(=O)(=O)c1cccc(Nc2nccc(-c3cccc4[nH]ccc34)n2)c1 [Compound 2, [4-(1H-Indol-4-yl)-pyrimidin-2-yl]-(3-methanesulfonyl-phenyl)-amine]",–,< 5,< 5,< 5,< 5,< 5,< 5,< 5
"CCNC(=O)Cn1ccc2c(-c3ccnc(Nc4cccc(Cl)c4)n3)cccc21 [Compound 13, 2-{4-[2-(3-Chloro-phenylamino)-pyrimidin-4-yl]-indol-1-yl}-N-ethyl-acetamide]",–,> 50,–,–,> 50,< 5,< 5,–
"Cc1cnc(Nc2cccc(S(C)(=O)=O)c2)nc1-c1cccc2[nH]ccc12 [Compound 31, [4-(1H-Indol-4-yl)-5-methyl-pyrimidin-2-yl]-(3-methanesulfonyl-phenyl)-amine]",–,< 5,5 to 15,< 5,< 5,< 5,< 5,< 5
